In the NIST ThermoML archive (doi:10.1021/je040006u):
± gives the expanded uncertainty stated by the source.

Experiments:
[1] = 101.3 kPa, Liquid, Pycnometric method
[2] = xn = mol fraction of the nth substance listed; details: 101.3 kPa, Liquid, Pycnometric method, x1 = 1

SMILES: COCCO [2-methoxyethan-1-ol]
- mass density ([1]; 291.15 K): 966.52 ± 2.6 kg/m3
- mass density ([1]; 293.15 K): 964.88 ± 2.6 kg/m3
- mass density ([1]; 298.15 K): 960.29 ± 2.6 kg/m3
- mass density ([1]; 303.15 K): 955.76 ± 2.6 kg/m3
- mass density ([1]; 308.15 K): 951.1 ± 2.6 kg/m3

SMILES: COCCO [2-methoxyethan-1-ol] + CCCNCCC
- mass density ([2]; 291.15 K): 966.52 ± 2.6 kg/m3
- mass density ([2]; 293.15 K): 964.88 ± 2.6 kg/m3
- mass density ([2]; 298.15 K): 960.29 ± 2.6 kg/m3
- mass density ([2]; 303.15 K): 955.76 ± 2.6 kg/m3
- mass density ([2]; 308.15 K): 951.1 ± 2.6 kg/m3

SMILES: CCCNCCC [dipropylamine]
- mass density ([1]; 291.15 K): 738.47 ± 2 kg/m3
- mass density ([1]; 293.15 K): 737.2 ± 2 kg/m3
- mass density ([1]; 298.15 K): 732.56 ± 2 kg/m3
- mass density ([1]; 303.15 K): 728.2 ± 2 kg/m3
- mass density ([1]; 308.15 K): 723.64 ± 2 kg/m3
